Measurements as given in PubChem BioAssay (NCI).
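GI50: concentration for 50% inhibition of growth. The concentration for full growth arrest is given as TGI.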

Columns and labels:
Assay in all cases: inhibition of tumour cell growth, NCI panel, 384-well format
HT29 colon = system: HT29 colon
NCI-H522 lung = system: NCI-H522 lung
SF-295 CNS = system: SF-295 CNS
786-0 renal = system: 786-0 renal
SF-539 CNS = system: SF-539 CNS
RPMI-8226 leukemia = system: RPMI-8226 leukemia
HCT-15 colon = system: HCT-15 colon
MDA-MB-468 breast = system: MDA-MB-468 breast
HS 578T breast = system: HS 578T breast
IGROV1 ovarian = system: IGROV1 ovarian
ACHN renal = system: ACHN renal
NCI-H460 NSCLC = system: NCI-H460 NSCLC
T-47D breast = system: T-47D breast
SK-OV-3 ovarian = system: SK-OV-3 ovarian
BT-549 breast = system: BT-549 breast
OVCAR-3 ovarian = system: OVCAR-3 ovarian
PC-3 prostate = system: PC-3 prostate
MCF7 breast = system: MCF7 breast
SW-620 colon = system: SW-620 colon
NCI-H322M lung = system: NCI-H322M lung
MALME-3M melanoma = system: MALME-3M melanoma
SR leukemia = system: SR leukemia
OVCAR-4 ovarian = system: OVCAR-4 ovarian
HCC-2998 colon = system: HCC-2998 colon
U251 glioblastoma = system: U251 glioblastoma
MDA-MB-435 melanoma = system: MDA-MB-435 melanoma
LOX IMVI melanoma = system: LOX IMVI melanoma
OVCAR-8 ovarian = system: OVCAR-8 ovarian
NCI/ADR-RES ovarian = system: NCI/ADR-RES ovarian
COLO 205 colon = system: COLO 205 colon
TK-10 renal = system: TK-10 renal
NCI-H226 lung = system: NCI-H226 lung
SK-MEL-28 melanoma = system: SK-MEL-28 melanoma
A498 renal = system: A498 renal
K-562 leukemia = system: K-562 leukemia
UACC-62 melanoma = system: UACC-62 melanoma
DU-145 prostate = system: DU-145 prostate
M14 melanoma = system: M14 melanoma
RXF 393 renal = system: RXF 393 renal
MOLT-4 leukemia = system: MOLT-4 leukemia
EKVX NSCLC = system: EKVX NSCLC
CCRF-CEM leukemia = system: CCRF-CEM leukemia
HOP-92 NSCLC = system: HOP-92 NSCLC
A549 NSCLC = system: A549 NSCLC
KM12 colon = system: KM12 colon
SN12C renal = system: SN12C renal
UO-31 renal = system: UO-31 renal
HOP-62 NSCLC = system: HOP-62 NSCLC
SNB-19 CNS = system: SNB-19 CNS
CAKI-1 renal = system: CAKI-1 renal
SNB-75 CNS = system: SNB-75 CNS
SK-MEL-5 melanoma = system: SK-MEL-5 melanoma
NCI-H23 lung = system: NCI-H23 lung
HL-60(TB) leukemia = system: HL-60(TB) leukemia
MDA-MB-231 breast = system: MDA-MB-231 breast
OVCAR-5 ovarian = system: OVCAR-5 ovarian
UACC-257 melanoma = system: UACC-257 melanoma
SF-268 CNS = system: SF-268 CNS

COCCOC(=O)C1=C(C)NC2=C(C(=O)CC(c3ccccc3OC)C2)C1c1cccc(O)c1 (stereo unspecified)
GI50 (HT29 colon): 6.75 µM
TGI (HT29 colon): 22.2 µM
GI50 (NCI-H522 lung): 2.39 µM
TGI (NCI-H522 lung): 13.7 µM
GI50 (SF-295 CNS): 16.2 µM
TGI (SF-295 CNS): 37.5 µM
GI50 ([…]-0 renal): 5.49 µM
TGI (786-0 renal): 24.2 µM
GI50 (SF-539 CNS): 11.2 µM
TGI (SF-539 CNS): 27.3 µM
GI50 (RPMI-8226 leukemia): 1.08 µM
TGI (RPMI-8226 leukemia): 4.87 µM
GI50 (HCT-15 colon): 11.6 µM
TGI (HCT-15 colon): 27 µM
GI50 (MDA-MB-468 breast): 2.5 µM
TGI (MDA-MB-468 breast): 7.67 µM
GI50 (HS 578T breast): 1.93 µM
TGI (HS 578T breast): 8.82 µM
GI50 (IGROV1 ovarian): 8.28 µM
TGI (IGROV1 ovarian): 24.7 µM
GI50 (ACHN renal): 17.3 µM
TGI (ACHN renal): 55.6 µM
GI50 (NCI-H460 NSCLC): 14.7 µM
TGI (NCI-H460 NSCLC): 30.8 µM
GI50 (T-47D breast): 8.93 µM
TGI (T-47D breast): 66.7 µM
GI50 (SK-OV-3 ovarian): 3.74 µM
TGI (SK-OV-3 ovarian): 20.4 µM
GI50 (BT-549 breast): 2.55 µM
TGI (BT-549 breast): 14.9 µM
GI50 (OVCAR-3 ovarian): 5.05 µM
TGI (OVCAR-3 ovarian): 17.6 µM
GI50 (PC-3 prostate): 15.6 µM
TGI (PC-3 prostate): 53.6 µM
GI50 (MCF7 breast): 2.68 µM
TGI (MCF7 breast): 20.7 µM
GI50 (SW-620 colon): 13 µM
TGI (SW-620 colon): 27 µM
GI50 (NCI-H322M lung): 12.7 µM
TGI (NCI-H322M lung): > 100 µM
GI50 (MALME-3M melanoma): 4.14 µM
TGI (MALME-3M melanoma): 23.2 µM
GI50 (SR leukemia): 0.761 µM
TGI (SR leukemia): 11.5 µM
GI50 (OVCAR-4 ovarian): 2.14 µM
TGI (OVCAR-4 ovarian): 8.76 µM
GI50 (HCC-2998 colon): 3.67 µM
TGI (HCC-2998 colon): 15.2 µM
GI50 (U251 glioblastoma): 17.2 µM
TGI (U251 glioblastoma): 44 µM
GI50 (MDA-MB-435 melanoma): 9.55 µM
TGI (MDA-MB-435 melanoma): 24.8 µM
GI50 (LOX IMVI melanoma): 3.75 µM
TGI (LOX IMVI melanoma): 13.6 µM
GI50 (OVCAR-8 ovarian): 6.94 µM
TGI (OVCAR-8 ovarian): 21.6 µM
GI50 (NCI/ADR-RES ovarian): 46.3 µM
TGI (NCI/ADR-RES ovarian): > 100 µM
GI50 (COLO 205 colon): 7.74 µM
TGI (COLO 205 colon): 24.6 µM
GI50 (TK-10 renal): 8.47 µM
TGI (TK-10 renal): 28.1 µM
GI50 (NCI-H226 lung): 4.91 µM
TGI (NCI-H226 lung): 27.6 µM
GI50 (SK-MEL-28 melanoma): 11 µM
TGI (SK-MEL-28 melanoma): 31 µM
GI50 (A498 renal): 10.6 µM
TGI (A498 renal): 29.6 µM
GI50 (K-562 leukemia): 5.62 µM
TGI (K-562 leukemia): 19.6 µM
GI50 (UACC-62 melanoma): 2.38 µM
TGI (UACC-62 melanoma): 16.6 µM
GI50 (DU-145 prostate): 18.5 µM
TGI (DU-145 prostate): 65 µM
GI50 (M14 melanoma): 11 µM
TGI (M14 melanoma): 34.9 µM
GI50 (RXF 393 renal): 16.2 µM
TGI (RXF 393 renal): 34.9 µM
GI50 (MOLT-4 leukemia): 7.21 µM
TGI (MOLT-4 leukemia): 20.7 µM
GI50 (EKVX NSCLC): 17.6 µM
TGI (EKVX NSCLC): 62.2 µM
GI50 (CCRF-CEM leukemia): 5.99 µM
TGI (CCRF-CEM leukemia): 19.4 µM
GI50 (HOP-92 NSCLC): 4.02 µM
TGI (HOP-92 NSCLC): 21 µM
GI50 (A549 NSCLC): 6.88 µM
TGI (A549 NSCLC): 31 µM
GI50 (KM12 colon): 9.21 µM
TGI (KM12 colon): 26.2 µM
GI50 (SN12C renal): 15.6 µM
TGI (SN12C renal): 41.2 µM
GI50 (UO-31 renal): 34.6 µM
TGI (UO-31 renal): > 100 µM
GI50 (HOP-62 NSCLC): 5.19 µM
TGI (HOP-62 NSCLC): 22.1 µM
GI50 (SNB-19 CNS): 11.4 µM
TGI (SNB-19 CNS): 38 µM
GI50 (CAKI-1 renal): 4.44 µM
TGI (CAKI-1 renal): 27.9 µM
GI50 (SNB-75 CNS): 9.16 µM
TGI (SNB-75 CNS): 98.6 µM
GI50 (SK-MEL-5 melanoma): 4.43 µM
TGI (SK-MEL-5 melanoma): 18.1 µM
GI50 (NCI-H23 lung): 8.58 µM
TGI (NCI-H23 lung): 25.8 µM
GI50 (HL-60(TB) leukemia): 1.27 µM
TGI (HL-60(TB) leukemia): 3.17 µM
GI50 (MDA-MB-231 breast): 4.79 µM
TGI (MDA-MB-231 breast): 60.4 µM
GI50 (OVCAR-5 ovarian): 12 µM
TGI (OVCAR-5 ovarian): 43.1 µM
GI50 (UACC-257 melanoma): 5.14 µM
TGI (UACC-257 melanoma): 22.8 µM
GI50 (SF-268 CNS): 15.5 µM
TGI (SF-268 CNS): 37 µM
